Reference: article PMC4138991, “Building a Better Dynasore: The Dyngo Compounds Potently Inhibit Dynamin and Endocytosis” (Traffic (Copenhagen, Denmark), 2013)
“Also recorded” adds a separate entry of the source. Read-outs that look alike come from different tables or passages of the source.

What was measured:
[1] = target: T1, recombinant rat dynamin II (Rattus norvegicus, UniProt P39052); test: Dynamin II GTPase assay (PS-stimulated); format: biochemical
T1 sequence (P39052 1-870): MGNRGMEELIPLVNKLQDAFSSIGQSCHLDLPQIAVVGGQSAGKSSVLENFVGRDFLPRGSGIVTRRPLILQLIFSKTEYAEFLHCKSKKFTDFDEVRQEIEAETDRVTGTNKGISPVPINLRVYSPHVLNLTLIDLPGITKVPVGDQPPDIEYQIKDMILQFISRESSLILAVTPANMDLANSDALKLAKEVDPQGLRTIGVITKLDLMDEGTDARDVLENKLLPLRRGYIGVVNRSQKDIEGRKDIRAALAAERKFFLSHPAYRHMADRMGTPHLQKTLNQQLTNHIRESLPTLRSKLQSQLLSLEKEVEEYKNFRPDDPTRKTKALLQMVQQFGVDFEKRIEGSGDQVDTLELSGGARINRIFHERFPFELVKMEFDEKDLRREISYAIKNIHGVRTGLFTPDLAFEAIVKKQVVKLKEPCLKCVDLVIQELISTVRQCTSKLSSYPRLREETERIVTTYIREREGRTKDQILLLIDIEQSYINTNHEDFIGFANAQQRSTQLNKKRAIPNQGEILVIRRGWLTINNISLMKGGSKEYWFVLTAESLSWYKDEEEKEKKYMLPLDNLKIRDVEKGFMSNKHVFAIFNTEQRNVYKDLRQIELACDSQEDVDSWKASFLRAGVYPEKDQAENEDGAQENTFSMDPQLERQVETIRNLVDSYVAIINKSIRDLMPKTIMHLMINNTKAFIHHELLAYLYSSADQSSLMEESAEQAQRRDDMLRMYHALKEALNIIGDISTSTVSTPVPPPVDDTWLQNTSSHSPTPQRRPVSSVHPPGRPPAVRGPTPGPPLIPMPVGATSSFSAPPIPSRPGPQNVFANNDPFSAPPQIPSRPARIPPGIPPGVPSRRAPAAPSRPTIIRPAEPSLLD
Description: Recombinant dynamin I was used only for the data in Table 2. The dynamin antibodies were from: Dynamin I—in‐house YF2 antibodies, raised in rabbits against two different synthetic peptides: dynamin I 629‐647 ([…]) and dynamin I 765–778 ([…]), used at 1/2000 dilution, as previously described 53; Dynamin II—Santa Cruz (C‐18, sc‐6400, used at 1/1000) and Dynamin III—Santa Cruz (P‐13, sc‐69472, used at 1/500 dilution).
Assay conditions were based on the dynamin I assay but contained modifications. Recombinant dynamin II was used at 50 nM, stimulated by 10 µg/mL PS. The GTPase reaction was allowed to occur for 90 min at 37°C before termination.

[2] = tested on: dynamin I SAI activity (rings); test: Self-assembly-induced (SAI) dynamin GTPase activity; format: biochemical, sheep; settings: presence of Tween, 500 nM dynamin
Procedure: The Malachite Green colorimetric GTPase assay was as described 10. Dynamin I activity was measured in its SAI activity state or was stimulated by three different methods. As each stimulus activates dynamin to different extents, each assay required different dynamin concentrations. First, maximal dynamin activity was stimulated by sonicated PS liposomes 10. Purified dynamin I (10–20 nM, diluted in: 6 mM Tris–HCl, 20 mM NaCl and 0.01% Tween 80, pH 7.4) was incubated in 96‐well plates in GTPase buffer (5 mM Tris–HCl, 10 mM NaCl, 2 mM Mg^2+, 0.05% Tween 80, pH 7.4, 1 µg/mL leupeptin and 0.1 mM PMSF) and GTP 0.3 mM in the presence of test compound for 30 min at 37°C in a final assay volume of 150 μL. Reactions were terminated with 10 μL of 0.5 M ethylenediaminetetraacetic acid (EDTA) pH 7.4 and Malachite Green solution (40 μL: 2% w/v ammonium molybdate tetrahydrate, 0.15% w/v malachite green and 4 M HCl) was added for 5 min. Second, dynamin (20 nM) was stimulated by 10 µg/mL of taxol‐stabilized preformed bovine brain microtubules (Cytoskeleton, Inc) using the same protocol. […] Finally, dynamin (500 nM) SAI activity was measured using high concentrations of dynamin, which promote its cooperative self‐assembly into rings (but not helices) 26. […] After the Vmax and Km values were determined, the data were transformed using the Lineweaver–Burke equation, 1/v = 1/Vmax + (Km/Vmax)(1/[S]).

[3] = tested on: Calyx of Held; test: Membrane capacitance measurements at the Calyx of Held in brain slices; format: cell-based, mice; settings: for SVE (decay of membrane capacitance): direct application by puffing pipette: 300 μM 4a, 800 μM dynasore

Row | Structure (SMILES) | IC50 ([1]; Absence of Tween, DynII 50 nM, no unit in table, read-out: IC50 DynII (rec)) [µM] | IC50 ([1]; Presence of Tween, DynII 50 nM, no unit in table, read-out: IC50 DynII (rec)) [µM] | inhibition of SAI (self-assembly) activity [2] | exocytosis (capacitance jump) ([3]; 300 μM 4a in puffing pipette) | SVE (decay of membrane capacitance) [3] | IC50 ([1]; detergent removed from the assay, n = 2, read-out: IC50 full-length helical dynamin II) [µM] | effect on dynamin II ([1]; standard assay with Tween-80, up to 1.5 mM)
1 | O=C(N/N=C/c1cc(O)c(O)cc1O)c1cc2ccccc2cc1O [4a, (E)-3-Hydroxy-N'-(2,4,5-trihydroxybenzylidene) -2-naphthohydrazide] | 2.3 ± 0.2 | 92.3 ± 10.9 | not at all inhibited; also recorded: without effect | did not acutely affect exocytosis | complete blockade of SVE | – | –
2 | O=C(N/N=C/c1ccc(O)c(O)c1)c1cc2ccccc2cc1O [Dynasore, (E)-N'-(3,4-Dihydroxybenzylidene)-3-hydroxy-2-naphthohydrazide] | – | – | did not block | – | inhibits SVE | 18.1 ± 0.2 | no effect
